Data reported in ChEMBL document CHEMBL1201862, “PubChem BioAssay data set” (2004).
The source made the active and inactive calls. Rule as the data show it, for most assays here: actives have a measured EC50 and inactives only a lower limit.

Key:
[1] = Luminescence Cell-Based Dose Confirmation HTS to Identify Activators of 5'UTR Stem-Loop Driven Alpha-Synuclein mRNA Translation in H4 Neuroglioblastoma Cells. [Related pubchem assays: 1829 (Project Summary), 1814 (Primary HTS)]; assay type: functional
[2] = Luminescence Cell-Based Dose Response HTS to Identify Activators of Luciferase Translation or Activity in H4 […] Cells. [Related pubchem assays: 1829 (Project Summary), 1814 (Primary HTS)]; assay type: functional
H4 = test: Luminescence Cell-Based Dose Response HTS to Identify Activators of 5'UTR Stem-Loop Driven Prion Protein mRNA Translation in H4 Neuroglioblastoma Cells. [Related pubchem assays: 1829 (Project Summary), 1814 (Primary HTS)]; assay type: functional; conditions: Homo sapiens
[3] = test system: Streptococcus sp. 'group A'; test: growth inhibition of control SK(-) GAS strain, dose response, counter-screen for streptokinase expression inhibitor project, luminescence, kanamycin, BacTiterGlo, confirmation (AID 1900); assay type: functional, organism-based
Streptococcus = test: Group A Streptococcus viability loss, dose response, counter-screen for streptokinase expression inhibitor project, luminescence, BacTiterGlo (AID 1915); assay type: functional, organism-based;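 also: potency for reduction of bacterial viability or growth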
INS1 = test: beta cell apoptosis inhibitors, cytokine rescue, dose response, luminescence, retest (AID 449756); assay type: functional, cell-based; conditions: Rattus norvegicus;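 also: cell death triggered by IL-1 beta plus TNF-alpha plus IFN-gamma mixture; protective hits raise ATP signal compared with cytokine alone wells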
[4] = cytotoxicity toward NIH3T3 fibroblasts, dose response, counter-screen, cell-based, ATP luminescence, mouse fibroblasts (AID 2010); assay type: functional;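 also: cells exposed to compound for about 90 hours before reading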
[5] = inhibitors of intracellular T. cruzi replication, confirmation, NIH3T3 host cells, beta-gal luminescence (AID 2044); assay type: functional, cell-based;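 also: intracellular parasites grown in NIH/3T3 mouse fibroblasts as host cells; luminescent beta-galactosidase reporter signal from transgenic T. cruzi replicating inside host cells; inhibitors lower the luminescence signal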
[6] = molecular target: T1, Corticotropin-releasing factor receptor 2/Corticotropin-releasing factor-binding protein (Homo sapiens, UniProt P24387+Q13324); test: activators of CRF receptor 2 with binding protein – uHTS hits, confirmation (AID 602473); assay type: functional; conditions: read-out: EC50_Mean
T1 sequence (Q13324 whole entry): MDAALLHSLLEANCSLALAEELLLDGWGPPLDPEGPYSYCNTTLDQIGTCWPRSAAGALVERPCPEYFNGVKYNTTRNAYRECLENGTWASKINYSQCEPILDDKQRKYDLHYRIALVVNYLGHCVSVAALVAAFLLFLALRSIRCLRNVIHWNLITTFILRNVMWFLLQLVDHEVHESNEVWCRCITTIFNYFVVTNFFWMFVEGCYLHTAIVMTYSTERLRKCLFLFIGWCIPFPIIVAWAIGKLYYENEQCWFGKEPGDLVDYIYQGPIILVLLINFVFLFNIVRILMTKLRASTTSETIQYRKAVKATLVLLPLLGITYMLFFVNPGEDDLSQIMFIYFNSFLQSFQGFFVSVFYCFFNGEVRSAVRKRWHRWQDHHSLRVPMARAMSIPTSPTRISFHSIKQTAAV
T1 sequence (P24387 whole entry): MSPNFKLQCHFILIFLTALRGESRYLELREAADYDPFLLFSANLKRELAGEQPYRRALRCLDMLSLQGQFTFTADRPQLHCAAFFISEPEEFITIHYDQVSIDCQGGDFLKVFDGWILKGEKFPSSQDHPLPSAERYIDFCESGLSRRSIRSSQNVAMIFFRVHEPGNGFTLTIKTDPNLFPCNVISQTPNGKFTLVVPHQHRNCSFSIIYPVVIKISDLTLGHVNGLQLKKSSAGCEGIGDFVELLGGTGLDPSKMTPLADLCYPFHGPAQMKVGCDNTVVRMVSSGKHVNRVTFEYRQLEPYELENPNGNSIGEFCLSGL

[7] = molecular target: T2, Rac GTPase-activating protein 1 (Homo sapiens, UniProt Q9H0H5); test: MgcRacGAP GTPase-activating activity inhibitors, confirmation, biochemical, ADP Hunter fluorescence, primary and confirmatory (AID 624330); assay type: functional
T2 sequence (Q9H0H5 whole entry): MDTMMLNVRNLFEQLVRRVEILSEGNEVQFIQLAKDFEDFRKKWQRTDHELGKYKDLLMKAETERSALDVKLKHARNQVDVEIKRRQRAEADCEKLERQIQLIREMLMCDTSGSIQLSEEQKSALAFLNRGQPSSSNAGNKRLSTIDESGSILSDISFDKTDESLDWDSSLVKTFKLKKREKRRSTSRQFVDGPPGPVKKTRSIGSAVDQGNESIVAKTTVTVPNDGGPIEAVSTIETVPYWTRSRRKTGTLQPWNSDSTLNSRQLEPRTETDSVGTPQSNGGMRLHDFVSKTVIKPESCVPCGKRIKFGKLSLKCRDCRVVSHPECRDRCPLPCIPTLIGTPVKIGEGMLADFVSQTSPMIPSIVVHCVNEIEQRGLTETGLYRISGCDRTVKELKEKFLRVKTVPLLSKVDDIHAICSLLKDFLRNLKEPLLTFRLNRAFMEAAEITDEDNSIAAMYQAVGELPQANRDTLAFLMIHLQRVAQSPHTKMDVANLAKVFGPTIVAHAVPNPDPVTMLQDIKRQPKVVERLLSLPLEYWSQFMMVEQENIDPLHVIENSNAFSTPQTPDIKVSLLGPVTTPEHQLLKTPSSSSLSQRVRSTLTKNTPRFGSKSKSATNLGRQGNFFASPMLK

[8] = molecular target: T3, Replicative DNA helicase DnaB (Mycobacterium tuberculosis, UniProt P9WMR3); test: DnaB intein splicing inhibitors, dose response, biochemical, cell-free fluorescence (AID 449749); assay type: functional
T3 sequence (P9WMR3 whole entry): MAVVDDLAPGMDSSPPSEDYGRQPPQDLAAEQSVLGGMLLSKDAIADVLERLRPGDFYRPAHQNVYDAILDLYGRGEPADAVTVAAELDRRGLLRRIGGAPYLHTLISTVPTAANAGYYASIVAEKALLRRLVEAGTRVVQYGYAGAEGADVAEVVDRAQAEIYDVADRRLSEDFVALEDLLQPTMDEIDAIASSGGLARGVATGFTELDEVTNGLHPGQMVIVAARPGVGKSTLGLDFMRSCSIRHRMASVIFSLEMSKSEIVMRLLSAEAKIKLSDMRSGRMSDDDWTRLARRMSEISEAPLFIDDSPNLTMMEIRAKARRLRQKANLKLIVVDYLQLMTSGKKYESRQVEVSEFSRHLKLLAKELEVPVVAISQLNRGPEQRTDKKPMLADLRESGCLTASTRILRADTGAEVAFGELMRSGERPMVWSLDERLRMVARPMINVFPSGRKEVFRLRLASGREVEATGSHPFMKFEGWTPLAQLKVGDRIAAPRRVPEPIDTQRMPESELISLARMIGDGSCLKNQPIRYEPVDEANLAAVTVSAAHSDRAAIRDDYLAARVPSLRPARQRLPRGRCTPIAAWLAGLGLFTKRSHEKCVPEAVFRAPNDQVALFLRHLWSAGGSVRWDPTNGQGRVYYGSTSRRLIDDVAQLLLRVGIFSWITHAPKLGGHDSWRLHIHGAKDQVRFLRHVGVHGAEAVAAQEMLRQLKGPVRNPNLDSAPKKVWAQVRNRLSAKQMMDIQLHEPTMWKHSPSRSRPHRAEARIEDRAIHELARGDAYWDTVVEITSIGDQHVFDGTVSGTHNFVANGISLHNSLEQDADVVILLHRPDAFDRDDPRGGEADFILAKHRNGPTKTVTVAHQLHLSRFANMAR

Protein RecA = molecular target: T4, Protein RecA (Mycobacterium tuberculosis, UniProt P9WHJ3); test: Fluorescence Cell-Free Homogeneous Dose Retest to Identify Inhibitors of RecA-Intein Splicing Activity. [Related pubchem assays (depositor defined):AID2097, AID2223, AID489010, AID492950]; assay type: functional
T4 sequence (P9WHJ3 whole entry): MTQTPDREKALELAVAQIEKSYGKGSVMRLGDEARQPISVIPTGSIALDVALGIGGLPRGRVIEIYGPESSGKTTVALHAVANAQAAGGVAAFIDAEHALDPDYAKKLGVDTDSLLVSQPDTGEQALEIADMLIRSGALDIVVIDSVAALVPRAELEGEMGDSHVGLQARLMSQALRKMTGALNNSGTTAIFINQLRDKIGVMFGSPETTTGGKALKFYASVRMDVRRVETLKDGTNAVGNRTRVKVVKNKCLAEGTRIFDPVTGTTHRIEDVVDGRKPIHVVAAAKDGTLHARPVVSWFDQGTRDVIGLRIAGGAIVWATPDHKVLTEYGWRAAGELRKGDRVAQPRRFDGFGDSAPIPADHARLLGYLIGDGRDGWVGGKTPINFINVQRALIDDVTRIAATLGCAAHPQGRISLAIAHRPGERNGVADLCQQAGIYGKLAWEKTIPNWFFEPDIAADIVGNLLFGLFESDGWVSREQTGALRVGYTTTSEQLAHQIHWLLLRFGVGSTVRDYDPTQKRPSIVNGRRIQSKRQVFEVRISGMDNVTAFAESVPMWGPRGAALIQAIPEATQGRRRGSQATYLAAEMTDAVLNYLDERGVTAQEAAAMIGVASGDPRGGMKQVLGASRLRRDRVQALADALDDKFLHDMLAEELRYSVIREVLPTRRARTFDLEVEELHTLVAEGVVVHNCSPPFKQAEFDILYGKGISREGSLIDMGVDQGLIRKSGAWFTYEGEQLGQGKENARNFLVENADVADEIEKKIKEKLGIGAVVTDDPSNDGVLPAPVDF

[9] = molecular target: T1, Corticotropin-releasing factor receptor 2/Corticotropin-releasing factor-binding protein; test: Dose Response confirmation of uHTS hits for small molecule antagonists of the CRF-binding protein and CRF-R2 receptor complex.; assay type: functional; conditions: read-out: IC50_Mean

| Compound | EC50 [1] | EC50 [2] | EC50 (H4) | IC50 [7] | other results |
| --- | --- | --- | --- | --- | --- |
| Cc1ccc2c(c1)C(c1ccncc1)=NNC(c1ccccc1)=N2 | 0.364 µM (active) | > 120 µM (not active) | 21.2 µM (active) |  |  |
| Cc1ccc(O)c(NC(=S)NC(=O)c2ccc(-c3ccc(Cl)cc3)o2)c1 |  |  |  |  | EC50 [3]: 1.16 µM (active); EC50 (Streptococcus): 5.74 µM (active); AC50 (INS1): 16.7 µM (active) |
| COc1cccc(NC(=O)C(=O)NCC2CCCN2S(=O)(=O)c2ccccc2)c1 (stereo not drawn) | 4.26 µM (active) | 2.67 µM (active) | 58.8 µM (active) |  |  |
| N#CCC(=O)N/N=C/c1cc(-c2ccccc2)n(-c2ccc(Cl)cc2)c1-c1ccccc1 |  |  |  |  | EC50 [4]: > 60 µM (inconclusive); AC50 (INS1): 3.21 µM (active); EC50 [5]: 1.51 µM (active) |
| COc1cc(/C=C/C(=O)OCC(=O)N(CC(C)C)c2c(N)n(Cc3ccccc3)c(=O)[nH]c2=O)ccc1O |  |  |  | 65.7 µM (active) | EC50 [6]: 2.73 µM (active) |
| Cc1ccc(CSc2nnc(SCC(=O)N/N=C/c3c(C)nn(-c4ccccc4)c3C)s2)cc1 | 0.169 µM (active) | > 120 µM (not active) | 43.9 µM (active) |  |  |
| COc1ccc2oc(=O)c(C(=O)N3CCN(c4ccccc4C)CC3)cc2c1 | 57 µM (active) | 17 µM (active) | 19 µM (active) |  |  |
| COC(=O)C1=C(C)N(CC2CCCO2)C(=O)/C1=C\c1ccc(O)cc1 (stereo not drawn) |  |  |  | 25 µM (active) |  |
| CCN1C(=O)/C(=C\NC2CCCC(C)C2C)SC1=S (stereo not drawn) | 0.564 µM (active) | 15.8 µM (active) | > 120 µM (not active) |  |  |
| O=C(Cc1ccc([N+](=O)[O-])cc1)Nc1cccnc1 |  |  |  |  | AC50 (INS1): 21.1 µM (active) |
| O=C1CCC(C2CCc3cc(O)ccc3C2)C1 (stereo not drawn) |  |  |  | 70.4 µM (active) |  |
| CC(C(=O)Nc1ccc2c(c1)OCO2)N1CCN(C)CC1 (stereo not drawn) |  |  |  | 65.3 µM (active) |  |
| Cc1ccc(S(=O)(=O)N2CCN(C(=O)CN3CCN(c4ccc(O)cc4)CC3)CC2)cc1 |  |  |  | 32.4 µM (active) |  |
| Cc1n[nH]c(SCC(=O)N2CCCCC2)c1[N+](=O)[O-] | 14.7 µM (active) | 8.02 µM (active) | 17.3 µM (active) |  |  |
| C/C(=N\N1C(=O)c2ccccc2NC1c1ccccc1)c1ccccc1O (stereo not drawn) |  |  |  |  | EC50 [4]: 7.4 µM (active); AC50 (INS1): 2.24 µM (active); EC50 [5]: 2.13 µM (active) |
| Cn1c(CN2CCOCC2)nc2cc(NC(=O)c3ccc(Cl)cc3)ccc21 | 26.7 µM (active) | 14.3 µM (active) | > 120 µM (not active) |  |  |
| COc1cc(-c2nc3ccc(C)cn3c2NCc2ccccc2)ccc1SC1CCCCC1 |  |  |  |  | AC50 (INS1): 4.87 µM (active) |
| O=C(/N=C1\SCC(=O)N1c1ccccc1Cl)c1ccco1 | 4.12 µM (active) | 8.06 µM (active) |  |  |  |
| O=c1c2ccccc2nc(/C=C/c2ccc(O)c(O)c2)n1-c1ccccc1 |  |  |  | 73.9 µM (active) |  |
| O=c1oc2ccccc2cc1NCc1ccccc1O | 0.325 µM (active) | 5.63 µM (active) | 46.2 µM (active) |  |  |
| O=C1/C(=C/c2cccnc2)Oc2cc(OS(=O)(=O)c3ccccc3)ccc21 | 18.3 µM (active) | 8.55 µM (active) | > 120 µM (not active) |  |  |
| CC1CC(C)(C)N(C(=O)CN2CCN(C)CC2)c2ccccc21 (stereo not drawn) |  |  |  | 85.3 µM (active) |  |
| COc1cc(/C=C(\C#N)C(=O)Nc2ccc3c(c2)OCCO3)ccc1O |  |  |  | 34 µM (active) | EC50 [6]: > 53 µM (inactive); AC50 [8]: 75.9 µM (active); EC50 (Protein RecA): 13.9 µM (active); IC50 [9]: > 47.1 µM (inactive) |
